As a reminder, the IC50 is the concentration that gives 50% inhibition.

Structures can show the parent of a compound that is named as a salt.

Series [1] has as its target PARP-1 enzyme (Homo sapiens, UniProt P09874). Put plainly: Inhibition test of poly (ADP-ribose) polymerase [PARP-1] enzyme (BPS Bioscience kit). Conditions: read-out: IC50 (PARP-1 enzyme inhibitory activity); PARP-1 enzyme 50 ng/well, 25° C. for 1 hour.
Description: Histones were coated on a 96-well plate provided from BPS Bioscience's kit and left at 4° C. for 16 hours. […] After 1 hour, each well was washed 4 times with PBST, and streptavidin-linked peroxidase (Strep-HRP, 1:50 dilution) was added thereto to measure the amount of ribosylation by PARP enzyme, and reacted at 25° C. for 30 minutes. The plate was washed 4 times with PBST, and then HRP chemiluminescent substrate was finally added thereto and reacted. The amount of histone ribosylation formed by each enzyme was quantified using a Synergy™ H4 Hybrid Multi-Mode Microplate Reader (BioTek Instruments, Inc., US (A)).
For series [2], the target named is T1, tankyrase-2 enzyme (Homo sapiens, UniProt Q9H2K2).
T1 construct: purchased BPS Bioscience 80578
Kind of series: Inhibition test of tankyrase-2 enzyme (BPS Bioscience kit). It is filed as biochemical. Conditions: tankyrase-2 enzyme 15 ng/well, 25° C. for 1 hour; read-out: IC50 (tankyrase-2 enzyme inhibitory activity).
Description: Histones were coated on a 96-well plate provided from BPS Bioscience's kit and left at 4 °C for 16 hours. […] After 1 hour, each well was washed 4 times with PBST, and streptavidin-linked peroxidase (Strep-HRP, 1:50 dilution) was added thereto to measure the amount of ribosylation by PARP enzyme, and reacted at 25° C. for 30 minutes. The plate was washed 4 times with PBST, and then HRP chemiluminescent substrate was finally added thereto and reacted. The amount of histone ribosylation formed by each enzyme was quantified using a Synergy™ H4 Hybrid Multi-Mode Microplate Reader (BioTek Instruments, Inc., US (A)).

The nature of series [3]: Measurement of solubility in water (shake-flask, UPLC). Conditions: water, shake-flask shaken for 24 hours, UPLC. It is filed as physicochemical. How it is done: Compounds are dissolved in DMSO and measured by UPLC, and then a calibration curve is drawn. The compounds saturated by the Shake-flask method are filtered and then measured by UPLC, and it is substituted into a calibration curve to calculate the concentration.

Series [4] in a line: Stability of the addition salt of Compound 1 (temperature, humidity, light; purity by HPLC). It is filed as physicochemical. As to the method:
The stability of crystals of the addition salt of Compound 1 prepared in the Examples and Comparative Examples above was confirmed, and the results are shown in Table 5 below.
Experiments according to temperature, humidity and light conditions were carried out by a method of confirming purity by HPLC after storage in a stability chamber under each condition.
Each sample was spread thinly in a Petri dish, and then the stability was evaluated after irradiation with UV light having a light intensity of 35 W to a total irradiation amount of 200 watts under conditions of 25° C. and 60% humidity using a photostability test chamber (CARON 6542-2).
Each sample was spread thinly in a Petri dish, and then the stability was evaluated after irradiation with visible light having a light intensity of 35 k Lux to a total irradiation amount of 1200 k lux under conditions of 25° C. and 60% humidity using a photostability test chamber (CARON 6542-2).

The nature of series [5]: Measurement of solubility in various solvents. Format: physicochemical. Conditions: 0.1 g of sample, 15 to 25° C., within 30 minutes. As to the method: Specifically, 0.1 g of sample was accurately weighed, put into each solvent, and shaken and mixed vigorously for 30 seconds every 5 minutes at 15 to 25° C., and the amount dissolved within 30 minutes was measured.
Series [6] can be described thus: Purity and stability under accelerated and long-term storage conditions (HPLC). Format: physicochemical. Conditions: listed as Crystalline monohydrate of citrate in Example 3; for Long-term storage conditions (related substances) (area %): 25±2° C., humidity 60±5%; for Accelerated storage conditions (related substances) (area %): 40±2° C., humidity 75±5%. How it is done: The purity and stability of the crystalline anhydride of the citrate prepared in Example 2 and the crystalline monohydrate of the citrate prepared in Example 3 according to the present invention were evaluated, and the results are shown in Tables 8 and 9 below.
In the tables below, stability tests were conducted under accelerated storage conditions of a temperature of 40±2° C. and humidity of 75±5%, and purity and stability tests were conducted under long-term storage conditions of a temperature of 25±2° C. and humidity of 60±5%. Experimental results were measured under the same conditions as in Experimental Example 1 using HPLC (product name: agilent 1290, manufacturer: Agilent).

T1 sequence (Q9H2K2 849-1166): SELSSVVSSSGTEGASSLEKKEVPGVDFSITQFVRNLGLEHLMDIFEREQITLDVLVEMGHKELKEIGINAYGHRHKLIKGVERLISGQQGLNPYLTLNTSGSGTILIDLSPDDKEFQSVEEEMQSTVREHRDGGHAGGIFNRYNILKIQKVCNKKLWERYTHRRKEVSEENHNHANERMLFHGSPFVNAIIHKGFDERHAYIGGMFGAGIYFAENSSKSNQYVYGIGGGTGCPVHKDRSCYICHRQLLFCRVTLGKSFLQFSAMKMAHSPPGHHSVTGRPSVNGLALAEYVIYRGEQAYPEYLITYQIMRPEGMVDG
Sequence of PARP-1 enzyme (P09874 whole entry): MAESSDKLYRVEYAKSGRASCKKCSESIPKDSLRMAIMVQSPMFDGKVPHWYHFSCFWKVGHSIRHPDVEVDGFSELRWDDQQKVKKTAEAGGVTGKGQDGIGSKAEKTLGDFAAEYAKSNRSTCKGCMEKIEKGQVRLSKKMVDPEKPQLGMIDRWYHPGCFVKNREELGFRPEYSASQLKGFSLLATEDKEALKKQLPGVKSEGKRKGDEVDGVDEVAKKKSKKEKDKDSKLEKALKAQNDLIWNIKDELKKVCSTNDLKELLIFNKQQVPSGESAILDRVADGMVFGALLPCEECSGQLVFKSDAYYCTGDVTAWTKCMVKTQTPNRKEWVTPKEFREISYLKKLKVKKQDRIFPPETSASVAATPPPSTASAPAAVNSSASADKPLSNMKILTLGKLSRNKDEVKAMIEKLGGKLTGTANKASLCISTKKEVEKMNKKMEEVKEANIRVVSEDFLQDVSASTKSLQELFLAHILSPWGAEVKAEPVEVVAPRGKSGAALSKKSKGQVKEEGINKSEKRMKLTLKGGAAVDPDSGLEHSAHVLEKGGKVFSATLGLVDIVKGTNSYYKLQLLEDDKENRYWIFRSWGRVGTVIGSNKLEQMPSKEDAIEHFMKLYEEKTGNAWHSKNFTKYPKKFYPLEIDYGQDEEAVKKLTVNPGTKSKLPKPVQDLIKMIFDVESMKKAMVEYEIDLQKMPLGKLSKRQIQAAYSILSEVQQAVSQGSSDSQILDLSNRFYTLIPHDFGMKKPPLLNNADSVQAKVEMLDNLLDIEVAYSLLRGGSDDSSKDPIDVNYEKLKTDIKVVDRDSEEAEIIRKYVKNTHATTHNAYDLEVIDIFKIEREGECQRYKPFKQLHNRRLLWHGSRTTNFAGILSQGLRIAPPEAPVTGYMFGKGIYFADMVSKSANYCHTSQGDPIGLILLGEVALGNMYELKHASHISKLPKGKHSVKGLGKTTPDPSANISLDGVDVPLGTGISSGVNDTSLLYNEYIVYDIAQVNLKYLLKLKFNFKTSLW

In the case of `Cl.Cl.N#Cc1ccc(N2CCN(Cc3ccc4c5c(c(=O)[nH]c4c3)CCCN5)CC2)nc1` [Comparative Example 2, Dichloride Salt of 6-{4-[(5-oxo-1,2,3,4,5,6-hexahydrobenzo[h][1,6]naphthyridin-8-yl)methyl]piperazine-1-yl}nicotinonitrile], the IC50 in series [1] came out at 3.03 nM; in series [2], 1.12 nM. Further, in series [3], the “Water solubility” value was 392 µM. In addition, the “Purity (%)” value in series [4] (Humidity of 75%, 3 days) was 97.76%; in series [4] (Initial value), 97.89%; in series [4] (Temperature of 40° C., humidity of 70%, 3 days), 97.83%; in series [4] (Temperature of 50° C., 3 days), 97.79%; in series [4] (UV 200 watt - dark), 97.89%; in series [4] (UV 200 watt, 25° C. and 60% humidity), 86.89%. Moreover, the “Purity (%)” value is 97.89% in series [4] (Visible 1200k lux - dark); 93.40% in series [4] (Visible 1200k lux, 25° C. and 60% humidity). Also, the “Photostability (in words)” value in series [4] (UV200 watt and Visible1200 k lux) was “remarkably poor photostability”. Further, the “Stability in the temperature and humidity (in words)” value in series [4] (temperature and humidity conditions of Table 5) is listed as “stable”.

As to `N#Cc1ccc(N2CCN(Cc3ccc4c5c(c(=O)[nH]c4c3)CCCN5)CC2)nc1` [Compound 1, 6-{4-[(5-oxo-1,2,3,4,5,6-hexahydrobenzo[h][1,6]naphthyridin-8-yl)methyl]piperazin-1-yl}nicotinonitrile], the “Water solubility” value in series [3] (listed as Crystal (free form) of the compound of Formula 1 in Comparative Example 1-1) was 1 µM. Also, the “Solubility (0.1 g/mL)” value in series [5] (Aqueous HCl solution (pH 1.1), listed as Free form) is on record as 350 mL; in series [5] (DMF, listed as Free form), 8 mL; in series [5] (EtOH, listed as Free form), ≥ 1000 mL; in series [5] (MeOH, listed as Free form), 300 mL; in series [5] (Water, listed as Free form), ≥ 1200 mL.

Consider `N#Cc1ccc(N2CCN(Cc3ccc4c5c(c(=O)[nH]c4c3)CCCN5)CC2)nc1` [Example 3, Citrate Monohydrate of 6-{4-[(5-oxo-1,2,3,4,5,6-hexahydrobenzo[h][1,6]naphthyridin-8-yl)methyl]piperazine-1-yl}nicotinonitrile], for which the “Long-term storage conditions (related substances) (area %)” value in series [6] (3 months) is given as 0.29%; in series [6] (6 months), 0.32%; in series [6] (initial), 0.38%. The “Accelerated storage conditions (related substances) (area %)” value in series [6] (3 months) is on record as 0.34%; in series [6] (6 months) it was 0.32%; in series [6] (initial) it was 0.38%. The “Solubility (0.1 g/mL)” value in series [5] (Aqueous HCl solution (pH 1.1), listed as Crystalline monohydrate of citrate in Example 3) came out at 50 mL; in series [5] (DMF, listed as Crystalline monohydrate of citrate in Example 3), 2.9 mL; in series [5] (EtOH, listed as Crystalline monohydrate of citrate in Example 3), 350 mL; in series [5] (MeOH, listed as Crystalline monohydrate of citrate in Example 3), 9 mL; in series [5] (Water, listed as Crystalline monohydrate of citrate in Example 3), 400 mL.

Take `N#Cc1ccc(N2CCN(Cc3ccc4c5c(c(=O)[nH]c4c3)CCCN5)CC2)nc1` [Example 4, Citrate Dihydrate of 6-{4-[(5-oxo-1,2,3,4,5,6-hexahydrobenzo[h][1,6]naphthyridin-8-yl)methyl]piperazine-1-yl}nicotinonitrile]: the “Solubility (0.1 g/mL)” value in series [5] (Aqueous HCl solution (pH 1.1), listed as Crystalline dihydrate of citrate in Example 4) is 55 mL; in series [5] (DMF, listed as Crystalline dihydrate of citrate in Example 4) it was 2.5 mL; in series [5] (EtOH, listed as Crystalline dihydrate of citrate in Example 4), 450 mL; in series [5] (MeOH, listed as Crystalline dihydrate of citrate in Example 4), 9 mL; in series [5] (Water, listed as Crystalline dihydrate of citrate in Example 4) it was ≥ 400 mL.
